Data from US20250136558A1, “PYRAZINE COMPOUNDS AS IRREVERSIBLE INHIBITORS OF FLT3” (BIOMEA FUSION, INC., priority 2021, published 2025).

Columns and labels:
Format in all cases: cell-based
K-562 = test: Proliferation inhibition (CellTiter-Glo) in K-562 cells; details: Homo sapiens, K562, 96 h, K-562 CML cells, no FLT3 mutations, IC50 (4 days)
Text: (§1) The Proliferation Inhibitory Effect was Investigated in Human AML Cell Lines MOLM-13 (AddexBio: C0003003) [REF: Pubmed: 9305600] and MV-4-11 (ATCC: CRL-9591) [REF PMID: 3496132], and CML cell line […] (ATCC: CRL-3343) [REF PMID: 163658]. Molm-13 is heterozygous for FLT3-ITD mutation, while MV4-11 is homozygous for FLT3-ITD [PMID: 12529668]. […] Cells were maintained in RPMI-1640 medium (ThermoFisher catalog no. 61870036) supplemented with 10% of Heat Inactivated FBS (ThermoFisher catalog no.A31605) and 1% Pen-Strep (Thermofisher catalog no. 10378016) and cultured at 37° C. in a humidified incubator with 5% CO2. Cell lines were […], and the cells were maintained in a range 70%-80% confluency.
(§2) ATP is present in all metabolically active cells and is considered as a marker for cell viability and proliferation. Metabolic cell activity was determined using the CellTiter-Glo kit (Promega catalog no. G7572), an ATP monitoring system based on the production of luminescence by the reaction of ATP with added UltraGlo® recombinant luciferase (Kawano et al., 2016, PLOS One, 8; 11(7):e0158888), according to the supplier's experimental recommendations. The assay was based on a 96 well plate format.
(§3) Test compounds were dissolved at 10 mM in DMSO (Sigma catalog no. D8418; purity 299.9%) and stored at −20° C. Eight concentrations of test compound were assessed in duplicate in an individual test occasion in parallel in the selected cell lines. Gilteratinib and FF-10101 were used as reference compounds and tested in duplicate at eight concentrations. 100% of proliferation is represented by the untreated cells (0.2% DMSO).
(§4) On the day of the experiment (TO), cells were quantified with the cell viability analyser NucleoCounter (Chemometec NC-200) and diluted with fresh medium to obtain the cell density of about 10,000 cells per 200 μL medium. 200 μL of cell suspension were added into wells in the 96 well plate.
(§5) After 2 hours from seeding cells, compounds were added using a D300e compound dispenser (Life Sciences Tecan D300) at desired concentrations with shaking between each compound dispensed. Cell plates containing 200 μL/well suspension were incubated at 37° C. in a humidified incubator with […].
(§6) […] Contents were mixed for 5 min on an orbital shaker to induce cell lysis, and then incubated at room temperature for an additional 10 min in the dark to stabilize the luminescent signal. Luminescence was read by using a GloMax GM300 plate reader (Promega) using the luminescence for 96 well plate standard protocol.
(§7) Results were analysed by GraphPad (Prism) and IC50 values were calculated by non-linear regression using four parameter-logistic equation.

MV-4-11 = test: Proliferation inhibition (CellTiter-Glo) in MV-4-11 cells; details: Homo sapiens, MV4-11, 96 h, MV-4-11 AML cells, homozygous FLT3-ITD, IC50 (4 days)
Text: as §1, §2, §3, §4, §5, §6, §7

MOLM-13 = test: Proliferation inhibition (CellTiter-Glo) in MOLM-13 cells; details: Homo sapiens, 96 h, MOLM-13 AML cells, heterozygous FLT3-ITD, IC50 (4 days)
Text: as §1, §2, §3, §4, §5, §6, §7

Row | Compound | IC50 (K-562) [nM] | IC50 (MV-4-11) [nM] | IC50 (MOLM-13) [nM]
1 | CC#CC(=O)NCCC(=O)NCCc1cc(Nc2nc(NC3CCOCC3)c(CC)nc2C(N)=O)cc(OC)c1 [Compound 101, 3-[3-[2-[3-(but-2-ynoylamino)propanoylamino]ethyl]-5-methoxy-anilino]-6-ethyl-5-(tetrahydropyran-4-ylamino)pyrazine-2-carboxamide] | > 500 | 10 to 100 | 10 to 100
2 | CC#CC(=O)N(C)[C@@H](C)C(=O)NCCc1cccc(Nc2nc(C)c(CC)nc2C(N)=O)c1 [Compound 206, 3-[3-[2-[[(2S)-2-[but-2-ynoyl(methyl)amino]propanoyl]amino]ethyl]anilino]-6-ethyl-5-methyl-pyrazine-2-carboxamide] | > 500 | 10 to 100 | > 500
3 | CC#CC(=O)N(C)[C@@H](C)C(=O)NCC#Cc1cc(Nc2nc(NC3CCOCC3)c(CC)nc2C(N)=O)cc(OC)c1 [Compound 108, 3-[3-[3-[[(2S)-2-[but-2-ynoyl(methyl)amino]propanoyl]amino]prop-1-ynyl]-5-methoxy-anilino]-6-ethyl-5-(tetrahydropyran-4-ylamino)pyrazine-2-carboxamide] | > 500 | 1 to 10 | 1 to 10
4 | C=CS(=O)(=O)N(C)[C@@H](C)C(=O)NCCNc1cc(Nc2nc(NC3CCOCC3)c(CC)nc2C(N)=O)ccn1 [Compound 41, 6-ethyl-3-[[2-[2-[[(2S)-2-[methyl(vinylsulfonyl)amino]propanoyl]amino]ethylamino]-4-pyridyl]amino]-5-(tetrahydropyran-4-ylamino)pyrazine-2-carboxamide] | > 500 | 10 to 100 | 10 to 100
5 | CC#CC(=O)NCCCCOc1cccc(Nc2nc(NC3CCOCC3)c(CC)nc2C(N)=O)c1 [Compound 6, 3-((3-(4-(But-2-ynamido)butoxy)phenyl)amino)-6-ethyl-5-((tetrahydro-2H-pyran-4-yl)amino)pyrazine-2-carboxamide] | > 500 | 100 to 500 | 100 to 500
6 | CC#CC(=O)N(C)[C@@H](C)C(=O)NCCOc1cccc(Nc2nc(NC3CCOCC3)c(CC)nc2C(N)=O)c1 [Compound 104, 3-[3-[2-[[(2S)-2-[but-2-ynoyl(methyl)amino]propanoyl]amino]ethoxy]anilino]-6-ethyl-5-(tetrahydropyran-4-ylamino)pyrazine-2-carboxamide] | > 500 | 1 to 10 | 1 to 10
7 | CC#CC(=O)N(C)[C@@H](C)C(=O)NCCc1cccc(Nc2nc(C)c(C)nc2C(N)=O)c1 [Compound 212, (S)-5,6-dimethyl-3-((3-(2-(2-(N-methylbut-2-ynamido)propanamido)ethyl)phenyl)amino)pyrazine-2-carboxamide] | > 500 | > 500 | > 500
8 | CCc1nc(C(N)=O)c(Nc2cccc(OCCCNC(=O)[C@H](C)N(C)C(=O)/C=C/CN3CC(F)(F)C3)c2)nc1NC1CCOCC1 [Compound 147, (S,E)-3-((3-(3-(2-(4-(3,3-difluoroazetidin-1-yl)-N-methylbut-2-enamido)propanamido)propoxy)phenyl)amino)-6-ethyl-5-((tetrahydro-2H-pyran-4-yl)amino)pyrazine-2-carboxamide] | > 500 | 10 to 100 | > 500
9 | C=CS(=O)(=O)NCC#Cc1cccc(Nc2nc(NC3CCOCC3)c(CC)nc2C(N)=O)c1 [Compound 10, 6-Ethyl-5-((tetrahydro-2H-pyran-4-yl)amino)-3-((3-(3-(vinylsulfonamido)prop-1-yn-1-yl)phenyl)amino)pyrazine-2-carboxamide] | > 500 | 100 to 500 | 100 to 500
10 | C=CC(=O)NCCNc1cc(Nc2nc(NC3CCOCC3)c(CC)nc2C(N)=O)ccn1 [Compound 20, 3-((2-((2-Acrylamidoethyl)amino)pyridin-4-yl)amino)-6-ethyl-5-((tetrahydro-2H-pyran-4-yl)amino)pyrazine-2-carboxamide] | > 500 | 10 to 100 | 100 to 500
11 | C=CS(=O)(=O)NCCC#Cc1cccc(Nc2nc(NC3CCOCC3)c(CC)nc2C(N)=O)c1 [Compound 12, 6-ethyl-5-((Tetrahydro-2H-pyran-4-yl)amino)-3-((3-(4-(vinylsulfonamido)but-1-yn-1-yl)phenyl)amino)pyrazine-2-carboxamide] | > 500 | 100 to 500 | > 500
12 | C=CS(=O)(=O)NCCNc1cc(Nc2nc(NC3CCOCC3)c(CC)nc2C(N)=O)ccn1 [Compound 23, 6-Ethyl-5-((tetrahydro-2H-pyran-4-yl)amino)-3-((2-((2-(vinylsulfonamido)ethyl)amino)pyridin-4-yl)amino)pyrazine-2-carboxamide] | 100 to 500 | 10 to 100 | 10 to 100
13 | CCc1nc(C(N)=O)c(Nc2cc(CCNC(=O)[C@H](C)N(C)C(=O)/C=C/CN(C)C)cc(OC)c2)nc1NC1CCOCC1 [Compound 110, 3-[3-[2-[[(2S)-2-[[(E)-4-(dimethylamino)but-2-enoyl]-methyl-amino]propanoyl]amino]ethyl]-5-methoxy-anilino]-6-ethyl-5-(tetrahydropyran-4-ylamino)pyrazine-2-carboxamide] | > 500 | < 1 | 1 to 10
14 | C=CS(=O)(=O)NCCCOc1cccc(Nc2nc(NC3CCOCC3)c(CC)nc2C(N)=O)c1 [Compound 4, 6-Ethyl-5-((tetrahydro-2H-pyran-4-yl)amino)-3-((3-(3-(vinylsulfonamido)propoxy)phenyl)-amino)pyrazine-2-carboxamide] | > 500 | 100 to 500 | 100 to 500
15 | C=CC(=O)N(C)CCCC(=O)NCCc1cc(Nc2nc(NC3CCOCC3)c(CC)nc2C(N)=O)cc(OC)c1 [Compound 30, 6-Ethyl-3-((3-methoxy-5-(2-(4-(N-methylacrylamido)butanamido)ethyl)phenyl)amino)-5-((tetrahydro-2H-pyran-4-yl)amino)pyrazine-2-carboxamide] | > 500 | 1 to 10 | 100 to 500
16 | CCc1nc(C(N)=O)c(Nc2cc(F)cc(OCCCNC(=O)[C@H](C)N(C)C(=O)/C=C/CN(C)C)c2)nc1NC1CCOCC1 [Compound 129, (S,E)-3-((3-(3-(2-(4-(Dimethylamino)-N-methylbut-2-enamido)propanamido)propoxy)-5-fluorophenyl)amino)-6-ethyl-5-((tetrahydro-2H-pyran-4-yl)amino)pyrazine-2-carboxamide] | > 500 | < 1 | < 1
17 | CCc1nc(C(N)=O)c(Nc2cccc(C#CCNC(=O)[C@H](C)N(C)C(=O)/C=C/CN(C)C)c2)nc1NC1CCOCC1 [Compound 18, (S,E)-3-((3-(3-(2-(4-(Dimethylamino)-N-methylbut-2-enamido)propanamido)prop-1-yn-1-yl)phenyl)amino)-6-ethyl-5-((tetrahydro-2H-pyran-4-yl)amino)pyrazine-2-carboxamide] | > 500 | < 1 | 1 to 10
18 | C#CC(=O)NCCCCOc1cccc(Nc2nc(NC3CCOCC3)c(CC)nc2C(N)=O)c1 [Compound 5, 6-Ethyl-3-((3-(4-propiolamidobutoxy)phenyl)amino)-5-((tetrahydro-2H-pyran-4-yl)amino)pyrazine-2-carboxamide] | > 500 | 10 to 100 | 10 to 100
19 | CCc1cnc(Nc2cccc(OCCCNC(=O)[C@H](C)N(C)C(=O)/C=C/CN(C)C)c2)c(C(N)=O)n1 [Compound 121, (S,E)-3-((3-(3-(2-(4-(dimethylamino)-N-methylbut-2-enamido)propanamido)propoxy)phenyl)amino)-6-ethylpyrazine-2-carboxamide] | > 500 | 10 to 100 | 100 to 500
20 | CCc1nc(C(N)=O)c(Nc2cccc(OCCCNC(=O)[C@H](C)N(C)C(=O)/C=C/CN(C)C)c2)nc1C1CC1 [Compound 125, (S,E)-5-cyclopropyl-3-((3-(3-(2-(4-(dimethylamino)-N-methylbut-2-enamido)propanamido)propoxy)phenyl)amino)-6-ethylpyrazine-2-carboxamide] | > 500 | 1 to 10 | 10 to 100
